Here are results for seven molecules from patent US20240269144A1, “METHODS AND KITS FOR THE DETECTION OF MALIGNANCIES” (H. LEE MOFFITT CANCER CENTER AND RESEARCH INSTITUTE, INC., priority 2021, published 2024).

Where two headings read alike, the source gives them in different places.

One data set relates to malignant T cells. Put plainly: EVOS drug assay (Cytolight Rapid Green / Cytox Red) on malignant T cells. The data set is classed as cell-based. How it is done: FIGS. 9A, 9B, 9C, and 9D show the effects various anti-cancer agents on malignant T cells. Cells are stained green with the Cytolight Rapid Green Dye—freely pass thru the membrane, however, once inside the dye is transformed into cell-impermeant probe transferred to daughter cells. Once the cells have been stained the dye is removed. Stains live cells. Then the Cytox Red is added and left in the media. Cytox Red moves inside the cells when the cell membrane is compromised. Assays were read at 0, 6, 12, 18 and 24 hrs. Each timepoint is analyzed separately for the designated concentration of Palbociclib (CDK4/6 inhibitor)(9A), Omacetaxine mepesuccinate (HHT)(9B), CX5461 (rRNA synthesis inhibitor)(9C), or BTZO-1 (MIF inhibitor)(9D).
To see the effect of various inhibitors on malignant T cells, we an EVOS drug assay (FIG. 9) measuring varying concentrations and time points for Palbociclib (CDK4/6 inhibitor)(FIG. 9A), Omacetaxine mepesuccinate (HHT)(FIG. 9B), CX5461 (rRNA synthesis inhibitor)(FIG. 9C), and BTZO-1 (MIF inhibitor)(FIG. 9D). By 12 hours, killing of malignant T cells was observed reaching a maximum for all drugs by […].

Data set [1] deals with acute myeloid leukemia and mantle cell lymphoma tumor cells. Conditions: pre-clinical models of acute myeloid leukemia and mantle cell lymphoma; cited from earlier work.
In data set [2] the test system is T-cell lymphoma lines Myla (MF), HH (MF—leukemic phase), Hu78 (SS). Put plainly: OXPHOS inhibitor apoptosis assay (Annexin V/PI), T-cell lymphoma cell lines. It counts as cell-based.
Data set [3] has the same test system.
Experimental: MYC inhibitor (MYCi975) cell proliferation assay (right). Indicated cell lines were seeded on 96-well plates and treated with different dose of MYCi975 for 5 days. At day 5, cells were incubated with MTS reagent following manufacture's protocol (Promega Cat #G3580). Absorbance at OD490 nm was recorded and percentage of growth were normalized to vehicle control. Half maximal inhibitory concentration (IC50) was calculated based on curve fitting result using non-linear regression function of GraphPad Prism 8. The symbol represents the mean. The error bars represent the mean±s.e.m. n=12 (MyLa and Jurkat); n=8 (HH, MJ, Hu78).
To determine the sensitivity of CTCL and other T cell lymphomas to OXPHOS and MYC inhibition, we performed pharmacologic perturbation assays using IACS10759 and MYCi975 in MF and other TCL cell lines (FIG. 4F).
Established T-cell lymphoma lines were used for drug assays, including Myla (MF; Sigma Aldrich Cat #95051032), HH (MF—leukemic phase; ATCC Cat #CRL-2105), and Hu78 (SS; ATCC Cat #TIB-161), Jurkat (ATLL) and MJ (ATLL; ATCC Cat #8294).
The target of a further data set is MYC (Homo sapiens, UniProt P01106). Conditions: cited from earlier work.
A further data set relates to CTCL. The settings on record: MAVORIC trial, cited from earlier work.
Where [4] appears, read: malignant T cells, at maximum killing.
Setting [5] is: in vitro pharmacologic studies, CTCL cell lines.

Chain of MYC (P01106 whole entry, species assumed): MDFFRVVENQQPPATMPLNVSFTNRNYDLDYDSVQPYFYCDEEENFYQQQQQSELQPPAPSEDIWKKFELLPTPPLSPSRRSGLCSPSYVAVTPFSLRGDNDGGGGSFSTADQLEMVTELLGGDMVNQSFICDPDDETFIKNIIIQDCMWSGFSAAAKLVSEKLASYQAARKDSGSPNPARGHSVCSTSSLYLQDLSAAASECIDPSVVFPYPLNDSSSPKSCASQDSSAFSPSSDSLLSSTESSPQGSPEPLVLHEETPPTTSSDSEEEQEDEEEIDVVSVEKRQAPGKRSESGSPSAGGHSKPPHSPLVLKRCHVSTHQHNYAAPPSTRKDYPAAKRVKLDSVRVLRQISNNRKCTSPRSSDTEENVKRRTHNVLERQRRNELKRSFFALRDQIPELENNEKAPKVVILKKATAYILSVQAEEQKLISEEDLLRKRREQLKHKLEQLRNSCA

Consider `O=c1nc(-c2ccccn2)sc2ccccc12` [BTZO-1], for which the “target cells remaining viable after treatment” value (“target cells remaining viable” for short) with malignant T cells turned out to be 50%.

On to `Cc1cnc(CNC(=O)c2c(=O)c3ccc(N4CCCN(C)CC4)nc3n3c2sc2ccccc23)cn1` [CX5461], for which the “target cells remaining viable” value in the data set on malignant T cells (setting [4]) was 60-70%.

On to `COC(=O)C[C@](O)(CCCC(C)(C)O)C(=O)O[C@@H]1C(OC)=C[C@]23CCCN2CCc2cc4c(cc2[C@H]13)OCO4` [HHT, Omacetaxine mepesuccinate], for which the “target cells remaining viable” value in the data set on malignant T cells (setting [4]) worked out at 50%.

Take `Cc1nc(-c2nc(-c3ccc(OC(F)(F)F)cc3)no2)nn1Cc1cccc(N2CCC(S(C)(=O)=O)CC2)c1` [IACS-010759]: the “effect of OXPHOS inhibition on tumor cells” value in data set [1] is “inhibition of tumor cell proliferation and induction of apoptosis”. In data set [2] (Myla, HH, Hu78, particularly for Myla, 8 nM, 5 days, Annexin V+PI+), the “sensitivity to IACS-010759 as assessed by apoptosis” value is on record as “low nanomolar sensitivity”. The “anti-tumor activity in vitro (OXPHOS inhibitor)” value in data set [2] (setting [5]) is “potent anti-tumor activity”.

Consider `Cn1nc(C(F)(F)F)cc1-c1ccc(OCc2ccc(Cl)cc2)c(-c2ccc(Cl)c(C(F)(F)F)c2)c1O` [MYCi975], for which the “sensitivity to MYCi975 as assessed by cell proliferation, cell viability and cytotoxicity (MTS assay)” value in data set [3] is “low micromolar sensitivity”. Further, the “anti-tumor activity in vitro (MYC inhibitor)” value in data set [3] (setting [5]) was “potent anti-tumor activity”. For the same molecule, the “preclinical in-vivo activity against MYC” value at MYC is “potent preclinical in-vivo activity against MYC”.

`CC(=O)c1c(C)c2cnc(Nc3ccc(N4CCNCC4)cn3)nc2n(C2CCCC2)c1=O` [Palbociclib]: the “target cells remaining viable” value in the data set on malignant T cells (setting [4]) worked out at 50%.

B1: mogamulizumab: anti-CCR4, FDA approved breakthrough therapy for CTCL (antibody, chains of the INN, looked up, V domains shown)
VH: EVQLVESGGDLVQPGRSLRLSCAASGFIFSNYGMSWVRQAPGKGLEWVATISSASTYSYYPDSVKGRFTISRDNAKNSLYLQMNSLRVEDTALYYCGRHSDGNFAFGYWGQGTLVTVSS
VL: DVLMTQSPLSLPVTPGEPASISCRSSRNIVHINGDTYLEWYLQKPGQSPQLLIYKVSNRFSGVPDRFSGSGSGTDFTLKISRVEAEDVGVYYCFQGSLLPWTFGQGTKVEIK
As for B1, the “responses in blood, % of patients” value with CTCL (blood compartment) is 49.2%. The “responses in skin, % of patients” value in the data set with CTCL (skin compartment) is 27.4%. In the data set with CTCL (mogamulizumab monotherapy, at ≥4 months (b5), at 4 months), the ORR was 25.3%. Moreover, the “median PFS” value with CTCL (mogamulizumab monotherapy) is 7.8 months.
